Data: patent publication US8415375B2, “2-hydroxyethyl-1H-quinolin-2-one derivatives and their azaisosteric analogues with antibacterial activity” (Actelion Pharmaceuticals Ltd., priority 2009, dated 2013)
Values after ≈ are worked out from the molar mass of the structure shown.

Assays:
Assay type in all cases: cell-based
S. aureus 29213 = experiment: Bacterial growth minimal inhibitory concentration (microdilution, cation-adjusted Mueller-Hinton Broth); details: Staphylococcus aureus
Protocol: Minimal inhibitory concentrations (MICs; mg/l) were determined in cation-adjusted Mueller-Hinton Broth by a microdilution method following the description given in “Methods for Dilution Antimicrobial Susceptibility Tests for Bacteria that Grow Aerobically”, Approved standard, 7th ed., Clinical and Laboratory Standards Institute (CLSI) Document M7-A7, Wayne, Pa., USA, 2006. All Example compounds were tested against several Gram positive and Gram negative bacteria. Typical antibacterial test results are given in Table 1 hereafter (MIC in mg/l).

hERG K+ channel = molecular target: T1, hERG K+ channel (Homo sapiens, UniProt Q12809); experiment: In vitro blocking of hERG K+ channels (QPatch automated patch-clamp, CHO-K1 cells); details: pH 7.4, at 10 μM, recombinant hERG in CHO-K1 cells, average block on two cells
T1 construct: host or cells: CHO-K1 (CHOhERG)
Protocol: hERG K^+ channels have been cloned from human heart and recombinant channels are stably expressed in CHO-K1 cells (CHOhERG). These cells have been purchased from bSys GmbH(CH-4052 Basel, Switzerland) and are grown in 150 mL culture flasks at 37° C. in 5% CO2. When the cells are ˜100% confluent, they are detached with 0.25% trypsin-EDTA solution and placed in the cell preparation unit of a QPatch automated patch-clamp robot (Sophion Bioscience A/S, 2750 Ballerup, Denmark).
Currents through the hERG K^+ channels (IKhERG) are elicited using the following buffer solutions and voltage protocol: • extracellular solution (in mM): [NaCl]=150; [KCl]=4; [CaCl2]=1.2; [MgCl2]=1; [HEPES]=10; pH adjusted to 7.4 with NaOH; • intracellular solution (in mM): [KCl]=140; [NaCl]=10; [MgCl2]=1; [HEPES]=10; [EGTA]=5; [Mg-ATP]=5; [Na3-GTP]=0.1; pH adjusted to 7.2 with KOH; • voltage protocol: the resting potential is −80 mV and the frequency of stimulation is 0.1 Hz. hERG K^+ currents are measured as the average current during the last 20 ms of the 500 ms pulse to −40 mV minus the average current during the last 20 ms of the 50 ms pulse to −40 mV.
After the cells have stabilized for a few minutes and the currents are steady, the amplitude of IKhERG is recorded under control conditions. Thereafter, the QPatch robot applies the test compound to the cell at the test concentration and, after 4 minutes of stimulation, the amplitude of IKhERG is recorded under test conditions. The ratio of the two amplitudes is used to define a fractional block and the average block on two cells is used to provide the effect of a given concentration (e.g. 10 μM). If, for a given test compound, a sufficient number of concentrations were tested, an apparent IC50 for inhibition of IKhERG is calculated.

S. aureus A798 = experiment: Bacterial growth minimal inhibitory concentration (microdilution), S. aureus A798; details: Staphylococcus aureus
Protocol: Minimal inhibitory concentrations (MICs; mg/l) were determined in cation-adjusted Mueller-Hinton Broth by a microdilution method following the description given in “Methods for Dilution Antimicrobial Susceptibility Tests for Bacteria that Grow Aerobically”, Approved standard, 7th ed., Clinical and Laboratory Standards Institute (CLSI) Document M7-A7, Wayne, Pa., USA, 2006.
[drawing 16] using the experimentals methods described above for the MIC regarding S. aureus A798 bacteria and for in vitro blocking hERG K^+ channels gave the results summarised in the Table 2 hereafter.

T1 sequence (Q12809 whole entry): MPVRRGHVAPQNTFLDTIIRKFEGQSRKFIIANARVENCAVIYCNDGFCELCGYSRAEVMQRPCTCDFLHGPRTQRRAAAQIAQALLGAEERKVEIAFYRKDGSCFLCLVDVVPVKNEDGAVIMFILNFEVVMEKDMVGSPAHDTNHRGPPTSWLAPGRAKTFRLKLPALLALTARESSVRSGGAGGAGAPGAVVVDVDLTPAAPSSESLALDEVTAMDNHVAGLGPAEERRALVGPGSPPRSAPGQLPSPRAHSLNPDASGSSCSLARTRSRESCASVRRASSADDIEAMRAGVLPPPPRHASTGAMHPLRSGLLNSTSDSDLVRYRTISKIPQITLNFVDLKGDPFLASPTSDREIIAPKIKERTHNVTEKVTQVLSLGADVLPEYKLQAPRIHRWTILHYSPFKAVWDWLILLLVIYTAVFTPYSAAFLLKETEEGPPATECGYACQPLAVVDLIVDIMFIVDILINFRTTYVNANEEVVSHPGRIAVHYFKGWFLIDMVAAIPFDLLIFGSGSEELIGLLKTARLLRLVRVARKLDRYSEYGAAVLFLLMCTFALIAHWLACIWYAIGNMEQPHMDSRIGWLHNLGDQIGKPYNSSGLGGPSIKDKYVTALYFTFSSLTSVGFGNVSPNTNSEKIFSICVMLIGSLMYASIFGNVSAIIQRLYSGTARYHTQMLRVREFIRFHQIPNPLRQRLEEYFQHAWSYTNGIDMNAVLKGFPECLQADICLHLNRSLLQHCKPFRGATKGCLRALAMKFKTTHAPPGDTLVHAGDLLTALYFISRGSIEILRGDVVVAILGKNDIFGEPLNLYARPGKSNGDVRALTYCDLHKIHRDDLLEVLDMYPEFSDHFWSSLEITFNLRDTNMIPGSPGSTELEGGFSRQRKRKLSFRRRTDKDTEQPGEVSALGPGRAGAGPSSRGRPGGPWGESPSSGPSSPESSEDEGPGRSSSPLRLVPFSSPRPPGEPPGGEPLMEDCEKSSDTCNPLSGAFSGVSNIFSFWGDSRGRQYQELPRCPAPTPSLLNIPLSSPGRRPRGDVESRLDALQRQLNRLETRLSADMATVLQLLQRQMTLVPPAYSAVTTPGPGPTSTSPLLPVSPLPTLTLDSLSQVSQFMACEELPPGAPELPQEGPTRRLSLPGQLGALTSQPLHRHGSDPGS

SMILES | MIC (S. aureus 29213) | MIC (S. aureus A798) | inhibition at 4 min, 10 µM (hERG K+ channel)
COc1ccc2ccc(=O)n(C[C@H](O)[C@@H]3CC[C@@H](NCc4cc5c(nn4)OCCO5)CO3)c2n1 [Example 5, 1-((2S)-2-{(2S,5R)-5-[(6,7-dihydro-[1,4]dioxino[2,3-c]pyridazin-3-ylmethyl)-amino]tetrahydro-pyran-2-yl}-2-hydroxy-ethyl)-7-methoxy-1H-[1,8]naphthyridin-2-one] | 0.063 µg/mL (≈ 0.134 µM) |  | 28%
COc1ccc2ncc(=O)n(C[C@H](O)C3CCC(NCc4cc5c(cn4)OCCO5)CC3)c2c1 (stereo partly drawn) [Example 7, 1-((2R)-2-{4-[(2,3-dihydro-[1,4]dioxino[2,3-c]pyridin-7-ylmethyl)-amino]-cyclohexyl}-2-hydroxy-ethyl)-7-methoxy-1H-quinoxalin-2-one] | ≤ 0.031 µg/mL | 0.125 µg/mL (≈ 0.268 µM) | 18%
COc1ccc2ccc(=O)n(C[C@H](O)[C@@H]3CC[C@@H](NCc4cc5c(nn4)OCCS5)CO3)c2n1 [Example 8, 1-((2S)-2-{(2S,5R)-5-[(6,7-dihydro-8-oxa-5-thia-1,2-diaza-naphthalen-3-ylmethyl)-amino]-tetrahydro-pyran-2-yl}-2-hydroxy-ethyl)-7-methoxy-1H-[1,8]naphthyridin-2-one] | 0.5 µg/mL (≈ 1.03 µM) |  | 6%
COc1ccc2ccc(=O)n(C[C@H](O)[C@@H]3CC[C@@H](NCc4cc5c(cn4)OCS5)CO3)c2n1 [Example 9, 1-((2S)-2-hydroxy-2-{(2S,5R)-5-[(3-oxa-1-thia-5-aza-indan-6-ylmethyl)-amino]-tetrahydro-pyran-2-yl}-ethyl)-7-methoxy-1H-[1,8]naphthyridin-2-one] | ≤ 0.031 µg/mL |  | 52%
COc1ccc2cc(F)c(=O)n(C[C@H](O)[C@@H]3CC[C@@H](NCc4cc5c(cn4)OCS5)CO3)c2n1 [Example 10, 3-fluoro-1-((2S)-2-hydroxy-2-{(2S,5R)-5-[(3-oxa-1-thia-5-aza-indan-6-ylmethyl)-amino]-tetrahydro-pyran-2-yl}-ethyl)-7-methoxy-1H-[1,8]naphthyridin-2-one] | ≤ 0.031 µg/mL |  | 48%
COc1ccc2ncc(=O)n(C[C@H](O)[C@@H]3CC[C@@H](NCc4cc5c(cn4)OCCS5)CO3)c2n1 [Example 11, 4-((2S)-2-{(2S,5R)-5-[(2,3-dihydro-4-oxa-1-thia-6-aza-naphthalen-7-ylmethyl)-amino]-tetrahydro-pyran-2-yl}-2-hydroxy-ethyl)-6-methoxy-4H-pyrido[2,3-b]pyrazin-3-one] | ≤ 0.031 µg/mL |  | 45%
COc1ccc2ncc(=O)n(C[C@H](O)[C@@H]3CC[C@@H](NCc4cc5c(nn4)OCCS5)CO3)c2n1 [Example 12, 4-((2S)-2-{(2S,5R)-5-[(6,7-dihydro-8-oxa-5-thia-1,2-diaza-naphthalen-3-ylmethyl)-amino]-tetrahydro-pyran-2-yl}-2-hydroxy-ethyl)-6-methoxy-4H-pyrido[2,3-b]pyrazin-3-one] | 0.063 µg/mL (≈ 0.129 µM) |  | 7%
COc1cnc2ccc(=O)n(C[C@H](O)[C@@H]3CC[C@@H](NCc4cc5c(cn4)OCCO5)CO3)c2n1 [Example 13, 5-((2S)-2-{(2S,5R)-5-[(2,3-dihydro-[1,4]dioxino[2,3-c]pyridin-7-ylmethyl)-amino]-tetrahydro-pyran-2-yl}-2-hydroxy-ethyl)-3-methoxy-5H-pyrido[2,3-b]pyrazin-6-one] | 0.125 µg/mL (≈ 0.266 µM) |  | 5%
COc1cnc2ccc(=O)n(C[C@H](O)[C@@H]3CC[C@@H](NCc4cc5c(cn4)OCCS5)CO3)c2n1 [Example 14, 5-((2S)-2-{(2S,5R)-5-[(2,3-dihydro-4-oxa-1-thia-6-aza-naphthalen-7-ylmethyl)-amino]-tetrahydro-pyran-2-yl}-2-hydroxy-ethyl)-3-methoxy-5H-pyrido[2,3-b]pyrazin-6-one] | ≤ 0.031 µg/mL |  | 
COc1cnc2ccc(=O)n(C[C@H](O)[C@@H]3CC[C@@H](NCc4cc5c(nn4)OCCS5)CO3)c2n1 [Example 15, 5-((S)-2-{(2S,5R)-5-[(6,7-dihydro-8-oxa-5-thia-1,2-diaza-naphthalen-3-ylmethyl)-amino]-tetrahydro-pyran-2-yl}-2-hydroxy-ethyl)-3-methoxy-5H-pyrido[2,3-b]pyrazin-6-one] | 0.25 µg/mL (≈ 0.514 µM) |  | 0%

Second part, led by results:

MIC (S. aureus 29213) | MIC (S. aureus A798) | SMILES | inhibition at 4 min, 10 µM (hERG K+ channel)
≤ 0.031 µg/mL |  | COc1ccc2ccc(=O)n(C[C@H](O)[C@@H]3CC[C@@H](NCc4cc5c(cn4)OCCS5)CO3)c2n1 [Example 1, 1-((S)-2-{(2S,5R)-5-[(2,3-dihydro-4-oxa-1-thia-6-aza-naphthalen-7-ylmethyl)-amino]-tetrahydro-pyran-2-yl}-2-hydroxy-ethyl)-7-methoxy-1H-[1,8]naphthyridin-2-one] | 32%
≤ 0.031 µg/mL | ≤ 0.063 µg/mL | COc1ccc2ccc(=O)n(C[C@H](O)[C@@H]3CC[C@@H](NCc4cc5c(cn4)OCCO5)CO3)c2n1 [Example 2, 1-((2S)-2-{(2S,5R)-5-[(2,3-dihydro-[1,4]dioxino[2,3-c]pyridin-7-ylmethyl)-amino]-tetrahydro-pyran-2-yl}-2-hydroxy-ethyl)-7-methoxy-1H-[1,8]naphthyridin-2-one] | 18%
≤ 0.031 µg/mL | ≤ 0.063 µg/mL | COc1ccc2ncc(=O)n(C[C@H](O)[C@@H]3CC[C@@H](NCc4cc5c(cn4)OCCO5)CO3)c2c1 [Example 3, 1-((2S)-2-{(2S,5R)-5-[(2,3-dihydro-[1,4]dioxino[2,3-c]pyridin-7-ylmethyl)-amino]tetrahydro-pyran-2-yl}-2-hydroxy-ethyl)-7-methoxy-1H-quinoxalin-2-one] | 18%
≤ 0.031 µg/mL | ≤ 0.063 µg/mL | COc1ccc2ncc(=O)n(C[C@H](O)[C@@H]3CC[C@@H](NCc4cc5c(cn4)OCCO5)CO3)c2n1 [Example 4, 4-((2S)-2-{(2S,5R)-5-[(2,3-dihydro-[1,4]dioxino[2,3-c]pyridin-7-ylmethyl)-amino]tetrahydro-pyran-2-yl}-2-hydroxy-ethyl)-6-methoxy-4H-pyrido[2,3-b]pyrazin-3-one] | 7%
≤ 0.031 µg/mL | ≤ 0.063 µg/mL | COc1ccc2ccc(=O)n(C[C@H](O)C3CCC(NCc4cc5c(cn4)OCCO5)CC3)c2n1 (stereo partly drawn) [Example 6, 1-((2R)-2-{4-[(2,3-dihydro-[1,4]dioxino[2,3-c]pyridin-7-ylmethyl)-amino]cyclohexyl}-2-hydroxy-ethyl)-7-methoxy-1H-[1,8]naphthyridin-2-one] | 35%
